Counter-ions that a name gives are not always drawn.
Key:
gastric acid secretion = assay: Inhibitory Effect on Gastric Acid Secretion in Ghosh-Schild Rats; assay type: in vivo, rat (male Wistar-KV); settings: 180 minutes after administration
Description: (a) Inhibitory Effect on Gastric Acid Secretion in Ghosh-Schild Rats Each of male Wistar-KV rats was fasted for 24 hours, and a trachea cannula was set up under urethane anesthesia. The abdomen was incised, a double cannula was set up at the forestomach, and then the abdomen was closed. The gastric acid secretion was stimulated by intravenous infusion of […]. Physiological saline was perfused into the stomach through the double cannula at a rate of 1 ml/min., and the effluent was collected every 10 minutes. The acidity of the effluent was measured, using an automatic titrator, by titrating the effluent with 1/100N sodium hydroxide to pH 7. When the acid secretion had reached a stable plateau, the test drug was intravenously administered, and the gastric acid secretion was measured 3 hours after the test drug administration. The antisecretory effect was expressed as percentages of the secretory amount before administration of the test compound. Inhibition percentages at 180 minutes after the administrations are shown.

[1] = system: gastric lesion induced by ethanol; assay: Inhibitory Effect on Formation of Gastric Lesion Induced by Ethanol; assay type: in vivo, rat (male Wistar); settings: P.O., 30 minutes before 1 ml of 99.5% ethanol orally, lesions 1 hour after ethanol
Description: (b) Inhibitory Effect on Formation of Gastric Lesion Induced by Ethanol
Male Wistar rats weighing 170 to 270 g were used. Each of the rats was placed in separate cages to deprive of food but allowed free access to water for 4 hours. Test drugs or the control drug were orally administered respectively in amounts of 3, 10 and 30 mg/kg, and 30 minutes thereafter 1 ml of 99.5% ethanol were orally administered respectively. One hour after the ethanol administration the rats were sacrificed by cervical vertebrae dislocation, and the stomachs were removed with 8 ml of 1% formalin and put into 1% formalin for 30 minutes to fix the gastric wall. After the fixing, each stomach was opened along the greater curvature, and then after the mucosal surface was washed with tap water, the total length lesions generated at the glandub portion was determined as an ulcer index.
The antiulcer effect by the test drug was expressed by the ED50 value (the dose of the test compound to inhibit the ulcer by 50% to the ulcer index of the non-treated group). Only the solvent was administered to the non-treated group.

| SMILES | Inhibiting action of gastric acid secretion (rat i.v.), 3 mg/kg (gastric acid secretion) [%] | Inhibiting action of gastric acid secretion (rat i.v.), 1 mg/kg (gastric acid secretion; sodium salt) [%] | ED50 value (dose of the test compound to inhibit the ulcer by 50% to the ulcer index of the non-treated group) ([1]; rat, sodium salt) [mg/kg] | Inhibiting action of gastric acid secretion (rat i.v.), 1 mg/kg (gastric acid secretion) [%] | ED50 ([1]; Rattus norvegicus, po, read-out: ED50 value (dose of the test compound to inhibit the ulcer by 50% to the ulcer index of the non-treated group)) [mg/kg] |
| --- | --- | --- | --- | --- | --- |
| Cc1ccc2[nH]c([S+]([O-])C3CCCCc4cccnc43)nc2c1 (centres unmarked) [Example 75, 9-(5-Methylbenzimidazole-2-yl)sulfinyl-2,3-cycloheptenopyridine] | 42.1 | – | – | – | – |
| COc1ccnc2c1CCCCC2[S+]([O-])c1nc2ccccc2[nH]1 (centres unmarked) [Example 68, 9-(Benzimidazole-2-yl)sulfinyl-4-methoxy-2,3-cycloheptenopyridine sodium salt] | – | 54.9 | 10.9 | – | – |
| COc1ccnc2c1CCCCC2[S+]([O-])c1nc2ccccc2[nH]1 (centres unmarked) [Example 77, 9-(Benzimidazole-2-yl)sulfinyl-4-methoxy-2,3-cycloheptenopyridine] | 74.7 | – | – | 44.7 | 13 |
| COc1ccnc2c1CCCCC2[S+]([O-])c1nc2cc(F)ccc2[nH]1 (centres unmarked) [Example 78, 9-(5-Fluorobenzimidazole-2-yl)sulfinyl-4-methoxy-2,3-cycloheptenopyridine] | 82.9 | – | – | 65.4 | – |
| COc1ccc2[nH]c([S+]([O-])C3CCCCc4c(OC)ccnc43)nc2c1 (centres unmarked) [Example 63, 9-(5-Methoxybenzimidazole-2-yl)sulfinyl-4-methoxy-2,3-cycloheptenopyridine] | 73.8 | – | – | 45.7 | – |
| COCCOc1ccnc2c1CCCCC2[S+]([O-])c1nc2ccccc2[nH]1 (centres unmarked) [Example 96, 9-(Benzimidazole-2-yl)sulfinyl-4-(2-methoxyethoxy)-2,3-cycloheptenopyridine] | 57.4 | – | – | 38.6 | – |
| COc1ccc2[nH]c([S+]([O-])Cc3ncc(C)c(OC)c3C)nc2c1 (centres unmarked) [Omeprazole, reference compound] | – | – | – | 36.9 | – |
| COc1c(C)cnc2c1CCCCC2[S+]([O-])c1nc2ccccc2[nH]1 (centres unmarked) [Example 109, 9-(Benzimidazole-2-yl)sulfinyl-4-methoxy-3-methyl-2,3-cycloheptenopyridine] | 77.6 | – | – | – | – |

— patent publication US5149702A, “Cycloheptenopyridine derivatives, process for preparation thereof and antiulcer agents containing the same” (Toa Eiyo Ltd., priority 1990, dated 1992)
